Source: ChEMBL document CHEMBL2073745, “Disruption of the mouse mdr1a P-glycoprotein gene leads to a deficiency in the blood-brain barrier and to increased sensitivity to drugs” (Cell, 1994)

Molecular target: ATP-dependent translocase ABCB1 (Mus musculus, UniProt P21447)
Test: TP_TRANSPORTER: increase in plasma concentration in mdr1a(-/-) mouse
Assay type: functional, organism-based
Conditions: in vivo

Sequence of ATP-dependent translocase ABCB1 (P21447 whole entry): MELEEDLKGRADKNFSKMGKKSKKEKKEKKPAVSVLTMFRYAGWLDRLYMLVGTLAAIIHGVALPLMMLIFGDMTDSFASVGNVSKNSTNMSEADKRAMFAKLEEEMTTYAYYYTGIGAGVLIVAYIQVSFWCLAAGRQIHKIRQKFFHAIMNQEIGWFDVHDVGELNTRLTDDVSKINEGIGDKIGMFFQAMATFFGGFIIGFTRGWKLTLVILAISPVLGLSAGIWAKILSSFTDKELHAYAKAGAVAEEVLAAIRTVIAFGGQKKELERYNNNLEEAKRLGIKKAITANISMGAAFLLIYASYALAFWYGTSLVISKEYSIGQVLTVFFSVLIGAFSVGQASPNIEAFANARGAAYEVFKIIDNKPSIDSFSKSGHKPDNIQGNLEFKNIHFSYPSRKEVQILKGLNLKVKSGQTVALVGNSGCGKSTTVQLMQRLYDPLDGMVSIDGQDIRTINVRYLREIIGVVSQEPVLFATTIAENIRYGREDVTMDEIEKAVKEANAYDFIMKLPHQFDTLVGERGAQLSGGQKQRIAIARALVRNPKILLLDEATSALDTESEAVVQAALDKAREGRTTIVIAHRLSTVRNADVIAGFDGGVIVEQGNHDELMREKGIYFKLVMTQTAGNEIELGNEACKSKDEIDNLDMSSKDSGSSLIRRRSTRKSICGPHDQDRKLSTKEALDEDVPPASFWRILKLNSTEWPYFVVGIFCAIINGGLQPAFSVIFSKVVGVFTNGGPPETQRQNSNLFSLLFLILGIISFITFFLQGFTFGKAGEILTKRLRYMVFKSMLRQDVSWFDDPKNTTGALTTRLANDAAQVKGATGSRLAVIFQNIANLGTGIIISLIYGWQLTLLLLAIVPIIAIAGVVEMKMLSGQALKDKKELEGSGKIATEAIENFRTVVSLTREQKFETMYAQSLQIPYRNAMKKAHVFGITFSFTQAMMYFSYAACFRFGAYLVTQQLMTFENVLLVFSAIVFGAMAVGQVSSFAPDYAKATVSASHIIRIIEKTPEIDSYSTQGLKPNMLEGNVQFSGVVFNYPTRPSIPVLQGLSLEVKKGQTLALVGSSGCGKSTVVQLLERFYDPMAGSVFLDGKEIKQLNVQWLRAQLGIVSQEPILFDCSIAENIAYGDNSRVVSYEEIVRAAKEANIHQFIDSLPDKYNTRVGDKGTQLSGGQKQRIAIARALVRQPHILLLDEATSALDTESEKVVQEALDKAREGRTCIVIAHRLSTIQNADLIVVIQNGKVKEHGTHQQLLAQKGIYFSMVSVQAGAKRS

- Activity: substrate [+]
Sequence: IVERMECTIN
